Measurements published in patent US6911531B2, “Antibodies directed towards a novel human EP prostaglandin receptor” (Allergan, Inc., priority 1994, dated 2005).

Key:
human HP4 receptor [1] = target: T1, human HP4 receptor (Homo sapiens, UniProt P43116); test: Competition of [3H]-PGE2 binding to membranes of HP4-transfected COS-7 cells; conditions: [3H]-PGE2 5 nM, 100 μg protein/tube, 60 minutes at room temperature; FIG. 1A-1C
T1 construct: a plasmid with a complete open reading frame in the sense orientation was isolated; expressed in transfected cells; host or cells: COS-7 cells (ATCC CRL 1651), transient DEAE-dextran transfection with pBC/HP4
T1 sequence (P43116 whole entry): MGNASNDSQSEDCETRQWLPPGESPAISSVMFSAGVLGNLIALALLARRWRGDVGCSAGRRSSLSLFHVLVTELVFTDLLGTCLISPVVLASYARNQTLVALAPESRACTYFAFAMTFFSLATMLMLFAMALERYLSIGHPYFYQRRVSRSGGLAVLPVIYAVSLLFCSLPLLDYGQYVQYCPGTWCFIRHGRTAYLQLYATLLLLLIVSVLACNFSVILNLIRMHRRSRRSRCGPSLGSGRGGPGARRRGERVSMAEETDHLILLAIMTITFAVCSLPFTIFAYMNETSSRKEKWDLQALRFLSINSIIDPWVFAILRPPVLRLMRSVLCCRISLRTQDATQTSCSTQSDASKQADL
Description: (§1) Monolayers of COS-7 cells (ATCC CRL 1651; 70-80% confluent) were rinsed with Phosphate Buffered Saline (PBS, Ca/Mg-free) in 150×25 mm culture dishes. Ten ml transfection mix, consisting of 5 μ/ml plasmid DNA and 0.5 mg/ml DEAE-dextran in PBS, was added to each dish and cells were incubated for 30 min at 37° C. Nine ml of the solution was removed from each dish followed by the addition of 10 ml of […] chloroquine in Dulbecco's Modified Eagle Medium (DMEM)/5% fetal bovine serum (FBS). The cells were incubated for 2.5 hr at 37° C., the solution aspirated and 10 ml of 10% dimethyl sulfoxide (DMSO) in DMEM/5% FBS was added. After a 2.5 minute incubation at 37° C., the solution was aspirated and 30 ml DMEM/5% FBS was added. The cells were incubated at 37° C. with media changes at 24 and 48 hours. After 72 hours, the media was aspirated and the cells were scraped into cold TME buffer (50 mM Tris-HCl, pH 7.4, 10 mM MgCl2, 1 mM EDTA). The dishes were rinsed with cold TME buffer and the cells combined and placed on ice.
Transfected COS-7 cells were homogenized for 30 seconds at approximately 80% power with a Brinkman PT 10/35 Polytron homogenizer. The resulting homogenate was centrifuged at 19,000 rpm for 20 minutes at 4° C. using a Sorvall SS-34 rotor. The membrane pellet was resuspended in cold TME buffer (1 ml per original dish), frozen in liquid nitrogen and stored at −80° C.
Membrane pellets were then diluted in ice-cold 50 mM Tris-HCl buffer at pH 7.4 using a sonicator set at 50 watts. Membrane suspensions (100 μl) were then added to each assay tube to start the binding reaction. Final concentrations of the competition assay were as follows: [^3H]-PGE2, 5 nM; 100 μg protein/tube in a total volume of 200 μl. Increasing concentrations of compounds to be tested for competitively inhibiting binding were incubated for 60 minutes at room temperature. Contents were aspirated onto a presoaked ice-cold Whatman GF/B filter using a Brandel Cell Harvester and washed three times with ice-cold assay buffer. The filters were dried, placed in scintillation fluid and counted.

[2] = Nials et al., 1993; cited from earlier work
human myometrium = conditions: Yeardley et al., 1992; cited from earlier work
human neutrophils = conditions: Nials et al., 1993; cited from earlier work
human HP4 receptor [3] = target: T1, human HP4 receptor; test: cAMP assay on HP4-transfected COS-7 cells; assay type: cell-based; conditions: FIG. 2
Description: as §1
HP4-transfected COS-7 cells, prepared as described in Example 2, were cultured in DMEM containing 10% FCS, 100 units/ml penicillin, 100 μ/ml streptomycin. […] Cells were trypsinized and resuspended in a small volume of medium (2-3 ml), counted using a hemocytometer and diluted to 7-8×10^4 cells/ml (DMEM/5% FCS). […] The amount of cAMP was quantified as follows. […]

putative EP2 receptor = conditions: cloned receptor of An et al. 1993 / Honda et al. 1993; cited from earlier work

competition of [3H]-PGE2 binding (human HP4 receptor [1])	Compound	other results
strongest competitors	CCCCC[C@H](O)/C=C/[C@H]1[C@H](O)CC(=O)[C@@H]1CCCCCCC(=O)O [PGE1]	–
displaced	CCCCCC(O)c1ccc(C2CCC(=O)C2CCCCCCC(=O)O)cc1 (stereo not shown) [AH13205]	bronchodilation [2]: induce bronchodilation; spontaneous contraction of human myometrium (human myometrium): inhibits; release of the inflammatory mediator leukotriene B4 (human neutrophils): inhibit
strongest competitors	CCCCC[C@H](O)/C=C/[C@H]1[C@H](O)CC(=O)[C@@H]1C/C=C\CCCC(=O)O [PGE2, Prostaglandin E2]	cAMP levels (human HP4 receptor [3]; IBMX, 3 minutes at 37° C.): significantly increased; potency order of stimulation of cAMP formation (human HP4 receptor [3]; order PGE2, AH13205, butaprost, PGE1-1-OH): potently stimulate cAMP formation

The next lines start with the compound.

Compound	competition of [3H]-PGE2 binding (human HP4 receptor [1])	other results
CCCCC[C@H](O)/C=C/[C@H]1[C@H](O)CC(=O)[C@@H]1CCCCCCCO [PGE1-1-OH]	only slightly active	–
CS(=O)(=O)NC(=O)CCC/C=C\C[C@H]1C(=O)C[C@@H](O)[C@@H]1/C=C/[C@@H](O)COc1ccccc1 [Sulprostone]	inactive	–
CCCCC(C)(C)[C@H](O)/C=C/[C@H]1[C@H](O)CC(=O)[C@@H]1C/C=C\CCCC(=O)O [16,16-dimethyl PGE2]	active	–
CCCC1([C@H](O)C/C=C/[C@H]2[C@H](O)CC(=O)[C@@H]2CCCCCCC(=O)OC)CCC1 [butaprost]	displaced	activity at the putative EP2 receptor clone (putative EP2 receptor): inactive
O=C(O)CCCCCC[C@H]1C(=O)CC[C@@H]1/C=C/[C@@H](O)COc1ccccc1 [MB 28767]	only slightly active	–
C[C@@H](O)CCC[C@H](O)/C=C/[C@H]1[C@H](O)CC(=O)[C@@H]1C/C=C\CCCC(=O)O [19(R)-hydroxy PGE2]	exhibited competitive activity	–
CCCCC[C@H](O)/C=C/[C@H]1CCC(=O)[C@@H]1CCCCCCC(=O)O [11-deoxy PGE1]	exhibited competitive activity	–
